Reference: patent US11976061B2, “Preparation of benzimidazolone derivatives as novel diacylglyceride O-acyltransferase 2 inhibitors” (Merck Sharp & Dohme LLC, priority 2020, dated 2024)

What follows are compounds tested against T1, human DGAT2 (hDGAT2) (Homo sapiens, UniProt Q96PD7) (assay: DGAT2 Enzymatic Activity Assay). Details: membrane prep of Sf-9 cells expressing hDGAT2; 25 μM diolein, 5 μM 13C oleoyl-CoA; 13C18-triolein by LC/MS/MS; read-out: DGAT2 IC50.
T1 construct: made in house; host or cells: Sf-9 insect cells (baculovirus), membrane fraction
T1 sequence (Q96PD7 1-388): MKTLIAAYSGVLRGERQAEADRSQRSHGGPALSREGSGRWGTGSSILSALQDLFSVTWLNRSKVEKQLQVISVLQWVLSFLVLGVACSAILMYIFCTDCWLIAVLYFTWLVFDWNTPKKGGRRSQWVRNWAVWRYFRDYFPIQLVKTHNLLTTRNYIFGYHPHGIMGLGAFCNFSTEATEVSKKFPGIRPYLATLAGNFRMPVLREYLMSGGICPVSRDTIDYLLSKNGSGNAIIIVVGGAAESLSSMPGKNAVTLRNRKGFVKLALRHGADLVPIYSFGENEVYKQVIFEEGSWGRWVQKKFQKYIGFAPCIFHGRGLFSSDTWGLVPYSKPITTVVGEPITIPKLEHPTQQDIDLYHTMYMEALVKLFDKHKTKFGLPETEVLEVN
Format: biochemical
Summary of the method: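 Membranes from Sf-9 cells expressing untagged human DGAT2 (8 ng/μL) incubated at rt in 100 mM Tris·Cl pH 7.0, 20 mM MgCl2, 5% ethanol with 25 μM diolein and 5 μM 13C oleoyl-CoA. 13C18-triolein product quantified by LC/MS/MS against 13C21-triolein internal standard; IC50 by 4-parameter fit.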

Going from `CC(C)n1c(=O)n(-c2cccc(OC(F)F)c2)c2ccc(C(=O)NC3(C)CS(=O)(=O)C3)cc21` [Example 26, 1-[3-(difluoromethoxy)phenyl]-3-isopropyl-N-(3-methyl-1,1-dioxo-thietan-3-yl)-2-oxo-benzimidazole-5-carboxamide] to `CC(C)n1c(=O)n(-c2cccc(OC(F)F)c2)c2ccc(C(=O)N[C@@]3(C)CCS(=O)(=O)C3)cc21` [Example 32, 1-[3-(difluoromethoxy)phenyl]-3-isopropyl-N-[(3S)-3-methyl-1,1-dioxo-thiolan-3-yl]-2-oxo-benzimidazole-5-carboxamide], the IC50 rises from 54 nM to 96 nM (1.8-fold).

First: CC(C)n1c(=O)n(-c2cccc(OC(F)F)c2)c2ccc(C(=O)NC(C)C(C)(C)O)cc21 (stereo not drawn) [Example 27, 1-[3-(difluoromethoxy)phenyl]-N-(2-hydroxy-1,2-dimethyl-propyl)-3-isopropyl-2-oxo-benzimidazole-5-carboxamide]
Second: CC(C)[C@@H](CO)NC(=O)c1ccc2c(c1)n(C(C)C)c(=O)n2-c1cccc(OC(F)F)c1 [Example 34, 1-[3-(difluoromethoxy)phenyl]-N-[(1S)-1-(hydroxymethyl)-2-methyl-propyl]-3-isopropyl-2-oxo-benzimidazole-5-carboxamide]
The IC50 of the first is higher: greater than 10000 nM for the first, 62 nM for the second. The second is the more potent here.

Compared with `CC(C)n1c(=O)n(-c2cccc(OC(F)F)c2)c2ccc(C(=O)N[C@H]3CCC[C@@H]3O)cc21` [Example 28, 1-[3-(difluoromethoxy)phenyl]-N-[(1S,2S)-2-hydroxycyclopentyl]-3-isopropyl-2-oxo-benzimidazole-5-carboxamide], `CC(C)n1c(=O)n(-c2cccc(OC(F)F)c2)c2ccc(C(=O)N[C@@H]3CCCC[C@H]3O)cc21` [Example 31, 1-[3-(difluoromethoxy)phenyl]-N-[(1R,2R)-2-hydroxycyclohexyl]-3-isopropyl-2-oxo-benzimidazole-5-carboxamide] is 7.3-fold lower in IC50: 779 nM for the first, 106 nM for the second.

Going from `CC(C)n1c(=O)n(-c2cccc(OC(F)F)c2)c2ccc(C(=O)N[C@H]3CCOC[C@@H]3O)cc21` [Example 29, 1-[3-(difluoromethoxy)phenyl]-N-[(3R,4S)-3-hydroxytetrahydropyran-4-yl]-3-isopropyl-2-oxo-benzimidazole-5-carboxamide] to `CC(C)n1c(=O)n(-c2cccc(OC(F)F)c2)c2ccc(C(=O)N[C@H]3CCCC[C@@H]3O)cc21` [Example 35, 1-[3-(difluoromethoxy)phenyl]-N-[(1S,2S)-2-hydroxycyclohexyl]-3-isopropyl-2-oxo-benzimidazole-5-carboxamide], the IC50 falls from 1260 nM to 71 nM (18-fold).

Going from `CC(C)n1c(=O)n(-c2cccc(OC(F)F)c2)c2ccc(C(=O)N[C@H]3CCCC(F)(F)[C@@H]3O)cc21` [Example 30, N-[(1S,2R)-3,3-difluoro-2-hydroxy-cyclohexyl]-1-[3-(difluoromethoxy)phenyl]-3-isopropyl-2-oxo-benzimidazole-5-carboxamide] to `CC(C)n1c(=O)n(-c2cccc(OC(F)F)c2)c2ccc(C(=O)NC3(C)CC(F)(F)C3)cc21` [Example 33, 1-[3-(difluoromethoxy)phenyl]-N-(3,3-difluoro-1-methyl-cyclobutyl)-3-isopropyl-2-oxo-benzimidazole-5-carboxamide], the IC50 rises from 31 nM to 182 nM (5.9-fold). The first is the more potent here.

First: CC1(NC(=O)c2ccc3c(c2)n(C2CCOCC2)c(=O)n3-c2cccc(OC(F)F)c2)CS(=O)(=O)C1 [Example 36, 1-(3-(difluoromethoxy)phenyl)-N-(3-methyl-1,1-dioxidothietan-3-yl)-2-oxo-3-(tetrahydro-2H-pyran-4-yl)-2,3-dihydro-1H-benzo[d]imidazole-5-carboxamide]
Second: C[C@@]1(NC(=O)c2ccc3c(c2)n(C2CCC2)c(=O)n3-c2cccc(OC(F)F)c2)CCS(=O)(=O)C1 [Example 37, (R)-3-Cyclobutyl-1-(3-(difluoromethoxy)phenyl)-N-(3-methyl-1,1-dioxidotetrahydrothiophen-3-yl)-2-oxo-2,3-dihydro-1H-benzo[d]imidazole-5-carboxamide]
The IC50 of the first is 3.3-fold lower: 19.4 nM for the first, 64 nM for the second.

Going from `C[C@@]1(NC(=O)c2ccc3c(c2)n(C2CCCC2)c(=O)n3-c2cccc(OC(F)F)c2)CCS(=O)(=O)C1` [Example 38, (R)-3-Cyclopentyl-1-(3-(difluoromethoxy)phenyl)-N-(3-methyl-1,1-dioxidotetrahydrothiophen-3-yl)-2-oxo-2,3-dihydro-1H-benzo[d]imidazole-5-carboxamide] to `CCn1c(=O)n(-c2cccc(OC(F)F)c2)c2ccc(C(=O)NC3(C)CCS(=O)(=O)CC3)cc21` [Example 39, 1-(3-(Difluoromethoxy)phenyl)-3-ethyl-N-(4-methyl-1,1-dioxidotetrahydro-2H-thiopyran-4-yl)-2-oxo-2,3-dihydro-1H-benzo[d]imidazole-5-carboxamide], the IC50 rises from 24 nM to 109 nM (4.5-fold).

Same assay, conditions: membrane prep of Sf-9 cells expressing hDGAT2; 25 μM diolein, 5 μM 13C oleoyl-CoA; 13C18-triolein by LC/MS/MS; read-out: Human DGAT2 IC50

Compared with `CC(C)n1c(=O)n(-c2cccc(OC(F)(F)F)c2)c2ccc(C(=O)NC3(C)CS(=O)(=O)C3)cc21` [Example 19, 3-isopropyl-N-(3-methyl-1,1-dioxo-thietan-3-yl)-2-oxo-1-[3-(trifluoromethoxy)phenyl]benz-imidazole-5-carboxamide], `CC(C)n1c(=O)n(-c2cccc(OC(F)F)c2)c2ccc(C(=O)N[C@]3(C)CCS(=O)(=O)C3)cc21` [Example 23, (R)-1-(3-(Difluoromethoxy)phenyl)-3-isopropyl-N-(3-methyl-1,1-dioxidotetrahydrothiophen-3-yl)-2-oxo-2,3-dihydro-1H-benzo[d]imidazole-5-carboxamide] is 1.6-fold lower in IC50: 100 nM for the first, 63 nM for the second.

`CC(C)n1c(=O)n(-c2cc(OC(F)F)ncc2F)c2ccc(C(=O)NC3(C)CS(=O)(=O)C3)cc21` [Example 20, 1-(2-(difluoromethoxy)-5-fluoropyridin-4-yl)-3-isopropyl-N-(3-methyl-1,1-dioxidothietan-3-yl)-2-oxo-2,3-dihydro-1H-benzo[d]imidazole-5-carboxamide] and `CC(C)n1c(=O)n(-c2cc(OC(F)F)ncc2F)c2cc(F)c(C(=O)NC3(C)CS(=O)(=O)C3)cc21` [Example 24, 1-(2-(Difluoromethoxy)-5-fluoropyridin-4-yl)-6-fluoro-3-isopropyl-N-(3-methyl-1,1-dioxidothietan-3-yl)-2-oxo-2,3-dihydro-1H-benzo[d]imidazole-5-carboxamide] are within 1.5-fold of each other in IC50: 76 nM for the first, 66 nM for the second.

First: CCOc1cc(-n2c(=O)n(C(C)C)c3cc(C(=O)NC4(C)CS(=O)(=O)C4)c(F)cc32)c(F)cn1 [Example 21, 1-(2-Ethoxy-5-fluoropyridin-4-yl)-6-fluoro-3-isopropyl-N-(3-methyl-1,1-dioxidothietan-3-yl)-2-oxo-2,3-dihydro-1H-benzo[d]imidazole-5-carboxamide]
Second: CC(C)n1c(=O)n(-c2cccc(C3CC3(F)F)c2)c2ccc(C(=O)NC3(C)CS(=O)(=O)C3)cc21 (stereo not drawn) [Example 22, 1-(3-(2,2-Difluorocyclopropyl)phenyl)-3-isopropyl-N-(3-methyl-1,1-dioxidothietan-3-yl)-2-oxo-2,3-dihydro-1H-benzo[d]imidazole-5-carboxamide]
The IC50 of the first is 2.1-fold lower: 31 nM for the first, 66 nM for the second.

`CC(C)n1c(=O)n(-c2cccc(OC(F)F)c2)c2ccc(C(=O)NC3(C)CCS(=O)(=O)CC3)cc21` [Example 25, 1-(3-(difluoromethoxy)phenyl)-3-isopropyl-N-(4-methyl-1,1-dioxidotetrahydro-2H-thiopyran-4-yl)-2-oxo-2,3-dihydro-1H-benzo[d]imidazole-5-carboxamide] gave an IC50 of 23 nM.
